Data: patent publication US8133847B2, “Pyrido[2,3-B]pyrazine derivatives useful as herbicidal compounds” (Syngenta Limited, priority 2006, dated 2012)

Key:
Type in all cases: in vivo
Setaria faberi (SETFA) = test: Example B2 herbicidal action, post-emergence, pots in glasshouse; conditions: Application post-emergence, evaluated after 13 days (100=total damage to plant; 0=no damage to plant)
Protocol: (§1) Seeds of a variety of test species were sown in standard soil in pots. After 8 days cultivation (post-emergence) under controlled conditions in a glasshouse (at 24/16° C., day/night; 14 hours light; 65% humidity), the plants were sprayed with an aqueous spray solution derived from the formulation of the technical active ingredient in acetone/water (50:50) solution containing 0.5% Tween 20 (polyoxyethylene sorbitan monolaurate, CAS RN 9005-64-5). The test plants were then grown in a glasshouse under controlled conditions in a glasshouse (at 24/16° C., day/night; 14 hours light; 65% humidity) and watered twice daily. After 13 days, the test was evaluated (100=total damage to plant; 0=no damage to plant).

Solanum nigrum (SOLNI) [1] = test: as above; conditions: Application post-emergence, evaluated after 13 days
Protocol: as §1

[2] = system: Ipomea hederaceae (IPOHE); test: as above; conditions: Application post-emergence, evaluated after 13 days (100=total damage to plant; 0=no damage to plant)
Protocol: as §1

[3] = system: Amaranthus retroflexus (AMARE); test: as above; conditions: Application post-emergence, evaluated after 13 days (100=total damage to plant; 0=no damage to plant)
Protocol: as §1

[4] = system: Echinochloa crusgalli (ECHCG); test: as above; conditions: Application post-emergence, evaluated after 13 days (100=total damage to plant; 0=no damage to plant)
Protocol: as §1

Solanum nigrum (SOLNI) [5] = test: Example B1 herbicidal action, post-emergence, 96-cell seed trays, climatic chamber; conditions: Application post-emergence, 1000 mg/l spray equivalent to 1000 g/ha, evaluated after 9 days (100=total damage to plant, 0=no damage to plant)
Summary of the method: (§2)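 Plants at 8–9 days post-sowing (23/17 °C, 13 h light, 50–60% humidity) sprayed post-emergence with 1000 mg/l active ingredient in 10% DMSO, equivalent to 1000 g/ha. Grown on at 24/19 °C, watered twice daily; damage scored after 9 days (0 = none, 100 = total).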

Stellaria media (STEME) = test: as above; conditions: Application post-emergence, 1000 mg/l spray equivalent to 1000 g/ha, evaluated after 9 days (100=total damage to plant, 0=no damage to plant)
Summary of the method: as §2

[6] = system: Amaranthus retroflexus (AMARE); test: as above; conditions: Application post-emergence, 1000 mg/l spray equivalent to 1000 g/ha, evaluated after 9 days
Summary of the method: as §2

[7] = system: Nasturtium officinale (NAAOF); test: as above; parameters: scale not given here; conditions: Application post-emergence, 1000 mg/l spray equivalent to 1000 g/ha, evaluated after 9 days (100=total damage to plant, 0=no damage to plant)
Summary of the method: as §2

Structure (SMILES) | damage to plant, Setaria faberi (SETFA) (Setaria faberi (SETFA)) | damage to plant, Solanum nigrum (SOLNI) (Solanum nigrum (SOLNI) [1]) | damage to plant, Ipomea hederaceae (IPOHE) [2] | damage to plant, Amaranthus retroflexus (AMARE) [3] | damage to plant, Echinochloa crusgalli (ECHCG) [4] | damage to plant, Solanum nigrum (SOLNI) (Solanum nigrum (SOLNI) [5]) | damage to plant, Stellaria media (STEME) (Stellaria media (STEME)) | damage to plant, Amaranthus retroflexus (AMARE) [6] | damage to plant, Nasturtium officinale (NAAOF) [7]
Cn1c(=O)c(-c2cc(F)ccc2Cl)c(OC(=O)C(C)(C)C)c2nccnc21 [Compound C143] | 8 | 10 | 9 | 10 | 7 |  |  |  | 
CCn1c(=O)c(-c2cc(OC(F)(F)F)ccc2OC)c(OC(=O)C(C)(C)C)c2nccnc21 [Compound C167] | 2 | 9 | 5 | 10 | 5 |  |  |  | 
Cc1ccc(C)c(-c2c(OC(=O)C(C)(C)C)c3nccnc3n(C)c2=O)c1 [Compound C134] | 2 | 10 | 6 | 9 | 0 |  |  |  | 
CC(C)C(=O)Oc1c(-c2c(F)ccc(Br)c2Cl)c(=O)[nH]c2nccnc12 [Compound B50] | 8 | 9 | 8 | 10 | 8 |  |  |  | 
CC(C)C(=O)Oc1c(-c2cc(F)ccc2Cl)c(=O)n(C)c2nccnc12 [Compound C142] | 7 | 10 | 9 | 10 | 8 |  |  |  | 
CCn1c(=O)c(-c2c(F)ccc(Br)c2Cl)c(OC(=O)C(C)C)c2nccnc21 [Compound C154] | 0 | 10 | 9 | 10 | 3 |  |  |  | 
CC(C)C(=O)Oc1c(-c2cc(F)c(Cl)cc2Cl)c(=O)[nH]c2nccnc12 [Compound B47] | 4 | 3 | 1 | 2 | 3 |  |  |  | 
Cn1c(=O)c(-c2cc(F)c(Cl)cc2Cl)c(OC(=O)C(C)(C)C)c2nccnc21 [Compound C149] | 3 | 7 | 5 | 9 | 3 |  |  |  | 
Cc1cnc2c(OC(=O)C(C)(C)C)c(-c3c(F)ccc(F)c3Cl)c(=O)n(C)c2n1 [Compound C170] | 7 | 6 | 4 | 8 | 8 |  |  |  | 
COc1ccc(OC(F)(F)F)cc1-c1c(OC(=O)C(C)C)c2nccnc2n(C)c1=O [Compound C159] | 7 | 8 | 2 | 9 | 9 |  |  |  | 
CC(C)(C)C(=O)Oc1c(-c2c(Cl)cc(OC(F)(F)F)cc2Cl)c(=O)[nH]c2nccnc12 [Compound B42] | 8 | 5 | 0 | 0 | 1 |  |  |  | 
CCn1c(=O)c(-c2c(Cl)cc(OC(F)(F)F)cc2Cl)c(OC(=O)C(C)(C)C)c2nccnc21 [Compound C139] | 10 | 10 | 10 | 10 | 10 |  |  |  | 
CC(C)(C)C(=O)Oc1c(-c2ccc(C(F)(F)F)cc2[N+](=O)[O-])c(=O)[nH]c2nccnc12 [Compound B44] | 0 | 3 |  | 7 | 3 |  |  |  | 
Cn1c(=O)c(-c2ccccc2I)c(OC(=O)C(C)(C)C)c2nccnc21 [Compound C136] | 8 | 10 |  | 9 | 9 |  |  |  | 
CC(CC(=O)Oc1c(-c2c(F)ccc(F)c2Cl)c(=O)n(C)c2nccnc12)CC(C)(C)C (stereo not shown) [Compound C98] |  |  |  |  |  | 2 | 1 | 5 | 2
CC(C)C(=O)Oc1c(-c2cc(C(F)(F)F)ccc2Cl)c(=O)n(C)c2nccnc12 [Compound C118] |  |  |  |  |  | 6 | 8 | 6 | 7
O=c1[nH]c2nccnc2c(O)c1-c1cc(Cl)ccc1Cl [Compound A3] |  |  |  |  |  | 0 | 3 | 8 | 4
CCn1c(=O)c(-c2ccc(Cl)cc2)c(OC(C)=O)c2nccnc21 [Compound C67] |  |  |  |  |  | 0 | 6 | 4 | 8
CCn1c(=O)c(-c2c(Cl)cccc2C(F)(F)F)c(OC(=O)C(C)C)c2nccnc21 [Compound C80] |  |  |  |  |  | 2 | 8 | 7 | 6
CCn1c(=O)c(-c2c(F)ccc(F)c2Cl)c(OC(=O)C(C)C)c2nccnc21 [Compound C11] |  |  |  |  |  | 5 | 8 | 9 | 8
CC(C)(C)C(=O)Oc1c(-c2ccccc2OC(F)(F)F)c(=O)n(CC2CC2)c2nccnc12 [Compound C47] |  |  |  |  |  | 3 | 0 | 4 | 1
CC(=O)Oc1c(-c2ccccc2OC(F)(F)F)c(=O)[nH]c2nccnc12 [Compound B8] |  |  |  |  |  | 2 | 3 | 1 | 3
CC(C)C(=O)Oc1c(-c2c(Cl)ccc(Cl)c2Cl)c(=O)n(C)c2nccnc12 [Compound C79] |  |  |  |  |  | 6 | 7 | 6 | 5
O=c1[nH]c2nccnc2c(O)c1-c1c(Cl)ccc(Cl)c1Cl [Compound A21] |  |  |  |  |  | 5 | 3 | 7 | 6
CCCCn1c(=O)c(-c2c(Cl)cccc2Cl)c(OC(C)=O)c2nccnc21 [Compound C40] |  |  |  |  |  | 2 | 2 | 3 | 2
